Laboratory results taken from ChEMBL document CHEMBL5113480, “Discovery of novel biphenyl-substituted pyridone derivatives as potent non-nucleoside reverse transcriptase inhibitors with promising oral bioavailability” (Eur J Med Chem, 2022).

Tests used:
[1] = test system: Human immunodeficiency virus 1; assay: Antiviral activity against HIV-1 ROD infected in human MT4 cells assessed as reduction in viral replication by MTT assay; assay type: functional, organism-based
[2] = Selectivity index, ratio of CC50 for cytotoxicity against human MT4 cells to EC50 of Anti-HIV activity against HIV-1 IIIB infected in human MT4 cells; assay type: toxicity, cell-based; conditions: read-out: Ratio CC50/EC50
[3] = Cytotoxicity against human MT4 cells assessed as reduction on cell growth by MTT assay; assay type: toxicity, cell-based
[4] = test system: Human immunodeficiency virus 1; assay: Antiviral activity against HIV-1 IIIB infected in human MT4 cells assessed as reduction in viral replication by MTT assay; assay type: functional, organism-based; conditions: Human immunodeficiency virus 1, IIIB
[5] = test system: Human immunodeficiency virus 1; assay: Antiviral activity against HIV-1 L100I mutant infected in human MT4 cells assessed as reduction in viral replication by MTT assay; assay type: functional, organism-based; conditions: Human immunodeficiency virus 1, L100I mutant
[6] = test system: Human immunodeficiency virus 1; assay: Antiviral activity against HIV-1 E138K mutant infected in human MT4 cells assessed as reduction in viral replication by MTT assay; assay type: functional, organism-based; conditions: Human immunodeficiency virus 1, E138K mutant
[7] = test system: Human immunodeficiency virus 1; assay: Antiviral activity against HIV-1 F227L-V106A mutant infected in human MT4 cells assessed as reduction in viral replication by MTT assay; assay type: functional, organism-based; conditions: Human immunodeficiency virus 1, F227L-V106A mutant
[8] = test system: Human immunodeficiency virus 1; assay: Antiviral activity against HIV-1 K103N-Y181C mutant infected in human MT4 cells assessed as reduction in viral replication by MTT assay; assay type: functional, organism-based; conditions: Human immunodeficiency virus 1, K103N-Y181C mutant
[9] = test system: Human immunodeficiency virus 1; assay: Antiviral activity against HIV-1 K103N mutant infected in human MT4 cells assessed as reduction in viral replication by MTT assay; assay type: functional, organism-based; conditions: Human immunodeficiency virus 1, K103N mutant
[10] = target: Human immunodeficiency virus type 1 reverse transcriptase (Human immunodeficiency virus 1, UniProt Q72547); assay: Inhibition of wild type HIV-1 Reverse transcriptase
[11] = test system: Human immunodeficiency virus 1; assay: Antiviral activity against HIV-1 Y181C mutant infected in human MT4 cells assessed as reduction in viral replication by MTT assay; assay type: functional, organism-based; conditions: Human immunodeficiency virus 1, Y181C mutant
[12] = test system: Human immunodeficiency virus 1; assay: Antiviral activity against HIV-1 Y188L mutant infected in human MT4 cells assessed as reduction in viral replication by MTT assay; assay type: functional, organism-based; conditions: Human immunodeficiency virus 1, Y188L mutant

Compound | EC50 [1] [µM] | selectivity ratio [2] | CC50 [3] [µM] | EC50 [4] [µM] | EC50 [5] [µM] | EC50 [6] [µM] | EC50 [7] [µM] | EC50 [8] [µM] | EC50 [9] [µM] | IC50 [10] [µM] | EC50 [11] [µM] | EC50 [12] [µM]
Cc1cccc(-c2ccc(Oc3c(C(F)(F)F)ccn(Cc4n[nH]c(=O)n4C)c3=O)c(Cl)c2)c1 | > 35 | < 1 | 24.7 | > 35 | – | – | – | – | – | – | – | –
Cn1c(Cn2ccc(C(F)(F)F)c(Oc3ccc(-c4cccc(F)c4)c(F)c3)c2=O)n[nH]c1=O | > 35 | 36.4 | 51.5 | 1.42 | 1.52 | 2.16 | > 35 | > 35 | 4.39 | 2.33 | 28.6 | > 35
Cn1c(Cn2ccc(C(F)(F)F)c(Oc3ccc(-c4ccc(C#N)cc4)cc3)c2=O)n[nH]c1=O | > 35 | 11.9 | 74.3 | 6.23 | 7.68 | 23.7 | > 35 | > 35 | 26.9 | 15.9 | 38.8 | > 35
Cn1c(Cn2ccc(C(F)(F)F)c(Oc3ccc(-c4cccc(C#N)c4)cc3)c2=O)n[nH]c1=O | > 35 | 23.7 | 114 | 4.79 | 10.8 | 12.2 | > 35 | > 35 | 14.3 | 14.4 | 39.1 | > 35
Cc1cc(Oc2c(C(F)(F)F)ccn(Cc3n[nH]c(=O)n3C)c2=O)ccc1-c1ccc(F)cc1 | > 35 | ≤ 4 | 23.7 | > 35 | – | – | – | – | – | – | – | –
Cc1ccc(-c2ccc(Oc3c(C(F)(F)F)ccn(Cc4n[nH]c(=O)n4C)c3=O)c(Cl)c2)cc1 | > 35 | < 1 | 50.9 | > 35 | – | – | – | – | – | – | – | –
Cn1c(Cn2ccc(C(F)(F)F)c(Oc3ccc(-c4cc(F)cc(C#N)c4)cc3)c2=O)n[nH]c1=O | > 35 | 5.95 | 90.5 | 15.2 | 9.01 | 13.9 | > 35 | > 35 | 15.5 | 8.1 | 42.2 | > 35
Cc1ccc(-c2ccc(Oc3c(C(F)(F)F)ccn(Cc4n[nH]c(=O)n4C)c3=O)cc2F)cc1 | > 35 | 3.52 | 28.2 | 8.05 | – | – | – | – | – | – | – | –
Cc1ccc(-c2cc(F)c(Oc3c(C(F)(F)F)ccn(Cc4n[nH]c(=O)n4C)c3=O)c(F)c2)cc1 | > 35 | < 1 | 20.5 | > 35 | – | – | – | – | – | – | – | –
Cn1c(Cn2ccc(C(F)(F)F)c(Oc3ccc(-c4ccc(F)c(C#N)c4)cc3)c2=O)n[nH]c1=O | > 35 | 6.75 | 49.1 | 7.28 | – | – | – | – | – | – | – | –
Cc1cccc(-c2ccc(Oc3c(C(F)(F)F)ccn(Cc4n[nH]c(=O)n4C)c3=O)c(C)c2)c1 | > 35 | ≤ 2 | 19.1 | > 35 | – | – | – | – | – | – | – | –
Cn1c(Cn2ccc(C(F)(F)F)c(Oc3c(F)cc(-c4ccc(F)cc4)cc3F)c2=O)n[nH]c1=O | > 35 | ≤ 2 | 18.2 | > 35 | – | – | – | – | – | – | – | –
Cc1cccc(-c2ccc(Oc3c(C(F)(F)F)ccn(Cc4n[nH]c(=O)n4C)c3=O)c(F)c2)c1 | > 35 | ≤ 1 | 20.3 | > 35 | – | – | – | – | – | – | – | –
Cn1c(Cn2ccc(C(F)(F)F)c(Oc3ccc(-c4cccc(F)c4)cc3)c2=O)n[nH]c1=O | > 35 | < 1 | 48.3 | > 35 | – | – | – | – | – | – | – | –
Cn1c(Cn2ccc(C(F)(F)F)c(Oc3ccc(-c4cccc(F)c4)cc3F)c2=O)n[nH]c1=O | > 35 | ≤ 1 | 46.8 | > 35 | – | – | – | – | – | – | – | –
Cc1ccc(-c2ccc(Oc3c(C(F)(F)F)ccn(Cc4n[nH]c(=O)n4C)c3=O)cc2)cc1 | > 35 | < 1 | 25 | > 35 | – | – | – | – | – | – | – | –
Cc1ccc(-c2ccc(Oc3c(C(F)(F)F)ccn(Cc4n[nH]c(=O)n4C)c3=O)cc2C)cc1 | > 35 | < 1 | 26.6 | > 35 | – | – | – | – | – | – | – | –
Cn1c(Cn2ccc(C(F)(F)F)c(Oc3ccc(-c4cccc(F)c4)cc3Cl)c2=O)n[nH]c1=O | > 35 | < 1 | 20.1 | > 35 | – | – | – | – | – | – | – | –
Cn1c(Cn2ccc(C(F)(F)F)c(Oc3ccc(-c4ccc(F)cc4)cc3Cl)c2=O)n[nH]c1=O | > 35 | < 1 | 16.7 | > 35 | – | – | – | – | – | – | – | –
Cc1cccc(-c2ccc(Oc3c(C(F)(F)F)ccn(Cc4n[nH]c(=O)n4C)c3=O)cc2F)c1 | > 35 | 6.05 | 27.7 | 4.58 | 4.83 | – | 7.66 | > 35 | > 35 | 17.9 | > 35 | > 35
Cc1ccc(-c2ccc(Oc3c(C(F)(F)F)ccn(Cc4n[nH]c(=O)n4C)c3=O)c(F)c2)cc1 | > 35 | < 1 | 38 | > 35 | – | – | – | – | – | – | – | –
Cn1c(Cn2ccc(C(F)(F)F)c(Oc3ccc(-c4ccc(F)cc4)cc3F)c2=O)n[nH]c1=O | > 35 | < 1 | 24.1 | > 35 | – | – | – | – | – | – | – | –
Cc1cccc(-c2cc(F)c(Oc3c(C(F)(F)F)ccn(Cc4n[nH]c(=O)n4C)c3=O)c(F)c2)c1 | > 35 | < 1 | 20.9 | > 35 | – | – | – | – | – | – | – | –
Cn1c(Cn2ccc(C(F)(F)F)c(Oc3ccc(-c4ccc(F)cc4)c(F)c3)c2=O)n[nH]c1=O | > 35 | 2.87 | 25.6 | 8.92 | – | – | – | – | – | – | – | –
Cc1ccc(-c2ccc(Oc3c(C(F)(F)F)ccn(Cc4n[nH]c(=O)n4C)c3=O)c(C)c2)cc1 | > 35 | ≤ 1 | 16.9 | > 35 | – | – | – | – | – | – | – | –
Cn1c(Cn2ccc(C(F)(F)F)c(Oc3ccc(-c4cccc(C#N)c4)c(F)c3)c2=O)n[nH]c1=O | > 35 | 424 | 104 | 0.25 | 0.7 | 0.8 | > 35 | 30.6 | 1.22 | 0.45 | 4.84 | 46.3
Cn1c(Cn2ccc(C(F)(F)F)c(Oc3ccc(-c4ccc(F)cc4)cc3)c2=O)n[nH]c1=O | > 35 | < 1 | 36.5 | > 35 | – | – | – | – | – | – | – | –
Cn1c(Cn2ccc(C(F)(F)F)c(Oc3ccc(-c4ccc(F)c(C#N)c4)c(F)c3)c2=O)n[nH]c1=O | > 35 | 78.5 | 69.5 | 0.89 | 1.75 | 1.51 | 42.4 | 44.8 | 2.14 | 1.12 | 22.3 | 41.4
Cc1cccc(-c2ccc(Oc3c(C(F)(F)F)ccn(Cc4n[nH]c(=O)n4C)c3=O)cc2)c1 | > 35 | < 1 | 32.3 | > 35 | – | – | – | – | – | – | – | –
Cc1cc(C#N)cc(C)c1Oc1nc(Nc2ccc(C#N)cc2)nc(N)c1Br [ETRAVIRINE] | > 35 | > 1600 | > 4.6 | 0.029 | – | – | – | 0.031 | – | – | – | 0.018
